Test results reported in patent US11208423B2, “Pyridinamine-pyridone and pyrimidinamine- pyridone compounds” (Sprint Bioscience AB, priority 2017, dated 2021).

Legend:
Vps34 enzyme = Vps34 enzyme (Homo sapiens (Human), UniProt Q8NEB9); experiment: Vps34 Biochemical Assay (Adapta kinase assay); settings: 20 μM ATP / 200 μM PI:PS substrate mix, 1 h at room temperature, TR-FRET, read-out: Median IC50 nM Adapta
Procedure: Dilution series of compounds of the invention were prepared in DMSO at 100 times the final assay concentration (n1=n0/3 in 10 points). The compounds were further diluted to 4 times the assay concentration in assay buffer (Life technologies buffer Q, PV5125, diluted 5 times supplemented with 2 mM DTT and 2 mM MnCl2). 2.5 μl of the diluted compounds were added to a 384 well assay plate followed by 2.5 μl of 16.5 nM Vps34 enzyme (Life technologies, PV5126). Enzyme and compounds were pre-incubated at rt for 15 min. Then 5 μl of substrate mix containing 20 μM ATP (Life technologies, PV3227) and 200 μM PI:PS substrate (Life technologies, PV5122) in assay buffer was added to the wells containing compound and enzyme. Mixing was performed by pipetting several times. The reaction was incubated at room temperature for 1 h. Then 5 μl stop-detection mix, prepared as described in the Adapta kinase assay kit instructions (Life technologies, PV5099) containing Adapta Eu-anti-ADP antibody (2.3 nM), Alexa Fluor 647 ADP tracer (9 nM) and EDTA (30 mM) in TR-FRET buffer, was added to quench the reaction. Mixing was performed by pipetting several times. The assay plate was then incubated at room temperature for 30 min and read with Artemis micro plate reader. Percent inhibition of the compounds as compared to DMSO treated control samples was calculated. By the use of Dotmatics software compound concentration versus percent inhibition was fitted to generate IC50 values.

[1] = tested on: autophagy in HOS cells (GFP-LC3); experiment: High Content Screening Autophagy Assay (GFP-LC3 foci); type: cell-based; settings: Homo sapiens; HOS cells expressing GFP-LC3; autophagy activated with KU-0063794 500 nM plus Bafilomycin A1 5 nM; 6 hours; foci area per cell; read-out: Median IC50 (μM) Cellular assay
Procedure: High Content Screening Autophagy Assay
Human osteosarcoma cells (HOS) stably expressing a Green Fluorescent Protein (GFP) tagged LC3 (GFP-LC3) were used to determine the inhibitory effect on autophagy of proprietary compounds. For that purpose, autophagy was activated by using the mTOR inhibitor KU-0063794 at 500 nM in the presence of Bafilomycin A1 (Sigma-Aldrich) at 5 nM. Shortly, cells were plated overnight in clear bottom 96-well plates in DMEM—High Modified media (Hi-Clone Cat #SH30285.01). At the start of the experiment, the media was removed and replaced with fresh media containing the mTOR inhibitor, Bafilomycin A1 and the vehicle or a test compound as indicated. After 6 hours the media was removed, cells were washed twice with ice-cold phosphate buffered saline (PBS) and fixed with 4% paraformaldehyde for 20 minutes at room temperature. Then the cells were washed twice with ice-cold PBS before adding Hoechst 33342 at 1 μg/ml in PBS for nuclear staining. After incubation overnight at 4° C., cells were washed once with PBS to remove the excess of dye and 100 μl of PBS was added to each well. Images were acquired at 20× magnification, 6 images per well, using the ImageXpress automated microscope (Molecular Devices Inc.) and analyzed with MetaXpress software to identify LC3-GFP foci. Foci area per cell values were used to generate dose response curves and IC50 values were calculated using the non-linear fitting analysis in GraphPad Prism software.
The results of the assay are shown in Table 2 (Median IC50 μM HOS-LC3).

Chain of Vps34 enzyme (Q8NEB9 whole entry): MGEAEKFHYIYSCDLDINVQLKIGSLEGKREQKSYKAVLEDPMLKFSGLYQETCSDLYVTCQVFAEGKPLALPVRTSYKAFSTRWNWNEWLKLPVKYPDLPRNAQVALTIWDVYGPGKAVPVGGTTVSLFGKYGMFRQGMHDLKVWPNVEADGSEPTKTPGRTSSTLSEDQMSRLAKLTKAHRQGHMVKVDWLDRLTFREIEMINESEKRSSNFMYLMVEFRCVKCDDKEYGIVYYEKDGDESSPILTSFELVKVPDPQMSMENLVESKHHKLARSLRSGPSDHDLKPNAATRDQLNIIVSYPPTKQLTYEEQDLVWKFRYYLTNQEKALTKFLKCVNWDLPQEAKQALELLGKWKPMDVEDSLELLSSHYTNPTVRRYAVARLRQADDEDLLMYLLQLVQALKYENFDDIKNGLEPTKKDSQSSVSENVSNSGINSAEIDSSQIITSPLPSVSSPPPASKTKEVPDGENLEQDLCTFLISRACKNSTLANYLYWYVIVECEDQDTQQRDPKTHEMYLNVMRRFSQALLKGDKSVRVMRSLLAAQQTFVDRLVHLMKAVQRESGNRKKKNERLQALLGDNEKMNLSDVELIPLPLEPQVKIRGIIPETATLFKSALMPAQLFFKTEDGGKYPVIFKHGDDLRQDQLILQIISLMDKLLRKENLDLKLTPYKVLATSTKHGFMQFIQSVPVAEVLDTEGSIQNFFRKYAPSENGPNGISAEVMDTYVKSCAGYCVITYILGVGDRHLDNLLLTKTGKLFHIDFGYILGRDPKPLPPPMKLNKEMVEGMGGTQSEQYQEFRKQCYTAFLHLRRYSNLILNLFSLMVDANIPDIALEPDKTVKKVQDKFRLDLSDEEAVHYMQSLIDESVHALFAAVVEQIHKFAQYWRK

SMILES	IC50 (Vps34 enzyme)	IC50 [1]
Cc1nc(Nc2cc(-c3cc(N4CCOCC4C(F)(F)F)[nH]c(=O)c3)ccn2)cs1 (stereo not drawn) [Example 42, 4-[2-[(2-Methylthiazol-4-yl)amino]-4-pyridyl]-6-[3-(trifluoromethyl)morpholin-4-yl]-1H-pyridin-2-one]	13 nM	–
O=c1cc(-c2ccnc(Nc3ncco3)c2)cc(N2CCOCC2C(F)(F)F)[nH]1 (stereo not drawn) [Example 40, 4-[2-(Oxazol-2-ylamino)-4-pyridyl]-6-[3-(trifluoromethyl)morpholin-4-yl]-1H-pyridin-2-one]	< 5 nM	0.029 µM
Cc1nccc(Nc2cc(-c3cc(N4CCCCC4C(F)(F)F)[nH]c(=O)c3)ccn2)n1 (stereo not drawn) [Example 18, 4-[2-[(2-Methylpyrimidin-4-yl)amino]-4-pyridyl]-6-[2-(trifluoromethyl)-1-piperidyl]-1H-pyridin-2-one]	< 5 nM	–
Cc1nccc(Nc2cc(-c3cc(N4CCN(S(=O)(=O)Cc5ccc(F)cc5)CC4C(F)(F)F)[nH]c(=O)c3)ccn2)n1 (stereo not drawn) [Example 33, 6-[4-[(4-Fluorophenyl)methylsulfonyl]-2-(trifluoromethyl)piperazin-1-yl]-4-[2-[(2-methylpyrimidin-4-yl)amino]-4-pyridyl]-1H-pyridin-2-one]	< 5 nM	0.003 µM
Cc1nccc(Nc2cc(-c3cc(-c4ccccc4C(F)(F)F)[nH]c(=O)c3)ccn2)n1 [Example 47, 4-[2-[(2-Methylpyrimidin-4-yl)amino]-4-pyridyl]-6-[2-(trifluoromethyl)phenyl]-1H-pyridin-2-one]	< 5 nM	0.003 µM
CCn1cc(-c2cc(-c3ccnc(Nc4ccnc(C)n4)c3)cc(=O)[nH]2)c(C(F)(F)F)n1 [Example 59, 6-[1-Ethyl-3-(trifluoromethyl)pyrazol-4-yl]-4-[2-[(2-methylpyrimidin-4-yl)amino]-4-pyridyl]-1H-pyridin-2-one]	< 5 nM	0.005 µM
Cn1nccc1Nc1cc(-c2cc(-c3ccccc3C(F)(F)F)[nH]c(=O)c2)ccn1 [Example 50, 4-[2-[(2-Methylpyrazol-3-yl)amino]-4-pyridyl]-6-[2-(trifluoromethyl)phenyl]-1H-pyridin-2-one]	55 nM	0.254 µM
O=c1cc(-c2ccnc(Nc3ccccc3)n2)cc(-c2cccnc2)[nH]1 [Example 6, 4-(2-Anilinopyrimidin-4-yl)-6-(3-pyridyl)-1H-pyridin-2-one]	< 5 nM	0.054 µM
Cc1nccc(Nc2cc(-c3cc(N4CCOCC4C(F)(F)F)[nH]c(=O)c3)ccn2)n1 (stereo not drawn) [Example 26, 4-[2-[(2-Methylpyrimidin-4-yl)amino]-4-pyridyl]-6-[3-(trifluoromethyl)morpholin-4-yl]-1H-pyridin-2-one]	< 5 nM	0.01 µM
O=c1cc(-c2ccnc(Nc3ccccc3)n2)cc(N2CCCCC2C(F)(F)F)[nH]1 (stereo not drawn) [Example 21, 4-(2-Anilinopyrimidin-4-yl)-6-[2-(trifluoromethyl)-1-piperidyl]-1H-pyridin-2-one]	< 5 nM	–
Cc1nccc(Nc2cc(-c3cc(-c4cnccc4C)[nH]c(=O)c3)ccn2)n1 [Example 55, 6-(4-Methyl-3-pyridyl)-4-[2-[(2-methylpyrimidin-4-yl)amino]-4-pyridyl]-1H-pyridin-2-one]	< 5 nM	0.099 µM
O=c1cc(-c2ccnc(Nc3ccccc3)n2)cc(-c2ccncc2)[nH]1 [Example 8, 4-(2-Anilinopyrimidin-4-yl)-6-(4-pyridyl)-1H-pyridin-2-one]	6 nM	0.066 µM
Cc1nccc(Nc2cc(-c3cc(-c4cccnc4C(F)(F)F)[nH]c(=O)c3)ccn2)n1 [Example 57, 4-[2-[(2-Methylpyrimidin-4-yl)amino]-4-pyridyl]-6-[2-(trifluoromethyl)-3-pyridyl]-1H-pyridin-2-one]	< 5 nM	0.006 µM

More lines, now with the values ahead:

IC50 (Vps34 enzyme)	IC50 [1]	SMILES
< 5 nM	–	O=c1cc(-c2ccnc(Nc3ccccc3)n2)cc(-c2ccccc2Cl)[nH]1 [Example 4, 4-(2-anilinopyrimidin-4-yl)-6-(2-chlorophenyl)-1H-pyridin-2-one]
< 5 nM	0.019 µM	O=c1cc(-c2ccnc(Nc3ccccc3)n2)cc(N2CCOCC2)[nH]1 [Example 10, 4-(2-anilinopyrimidin-4-yl)-6-morpholino-1H-pyridin-2-one]
< 5 nM	–	Cc1nccc(Nc2cc(-c3cc(-c4ccccc4Cl)[nH]c(=O)c3)ccn2)n1 [Example 66, 6-(2-Chlorophenyl)-4-[2-[(2-methylpyrimidin-4-yl)amino]-4-pyridyl]-1H-pyridin-2-one]
12 nM	–	Cn1cnc(Nc2cc(-c3cc(-c4ccccc4C(F)(F)F)[nH]c(=O)c3)ccn2)c1 [Example 62, 4-[2-[(1-Methylimidazol-4-yl)amino]-4-pyridyl]-6-[2-(trifluoromethyl)phenyl]-1H-pyridin-2-one]
< 5 nM	0.02 µM	O=c1cc(-c2ccnc(Nc3ccccc3)n2)cc(N2CCOCC2C(F)(F)F)[nH]1 (stereo not drawn) [Example 27, 4-(2-Anilinopyrimidin-4-yl)-6-[3-(trifluoromethyl)morpholin-4-yl]-1H-pyridin-2-one]
< 5 nM	0.002 µM	CCS(=O)(=O)N1CCN(c2cc(-c3ccnc(Nc4ccnc(C)n4)c3)cc(=O)[nH]2)C(C(F)(F)F)C1 (stereo not drawn) [Example 39, 6-[4-Ethylsulfonyl-2-(trifluoromethyl)piperazin-1-yl]-4-[2-[(2-methylpyrimidin-4-yl)amino]-4-pyridyl]-1H-pyridin-2-one]
52 nM	–	Cc1nc(Nc2cc(-c3cc(-c4ccccc4C(F)(F)F)[nH]c(=O)c3)ccn2)cs1 [Example 52, 4-[2-[(2-Methylthiazol-4-yl)amino]-4-pyridyl]-6-[2-(trifluoromethyl)phenyl]-1H-pyridin-2-one]
